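Grown in 96-well plates, cells were treated for 48 hours with each compound at five concentrations. Insufficient inhibition: endpoint recorded as highest concentration tested. Abbreviation: GI50, concentration required for 50% inhibition of growth.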 Activity calls are given as the source filed them. Rule as the data show it: active = GI50 up to about 1.1 µM and inactive = higher.
Key:
Test in all cases: DTP human tumour cell line panel, 48 h
[1] = test system: SR
[2] = test system: HCC 2998
[3] = test system: MDA-MB-231
[4] = test system: OVCAR-5
[5] = test system: NCI-H460
[6] = test system: OVCAR-4
[7] = test system: HCT-116
[8] = test system: MOLT-4
[9] = test system: EKVX
[10] = test system: HOP-62
[11] = test system: 786-0
[12] = test system: U-251
[13] = test system: RPMI-8226
[14] = test system: LOX IMVI
[15] = test system: HOP-92
[16] = test system: ACHN
[17] = test system: UO-31
[18] = test system: A549
[19] = test system: HT-29
[20] = test system: CAKI-1
[21] = test system: Hs-578T
[22] = test system: SNB-19
[23] = test system: BT-549
[24] = test system: COLO 205
[25] = test system: SK-MEL-2
[26] = test system: NCI/ADR-RES
[27] = test system: Malme-3M
[28] = test system: OVCAR-3
[29] = test system: MDA-N
[30] = test system: IGROV-1
[31] = test system: NCI-H23
[32] = test system: SW-620
[33] = test system: SNB-75
[34] = test system: OVCAR-8
[35] = test system: SN12C
[36] = test system: M14
[37] = test system: PC-3
[38] = test system: CCRF-CEM
[39] = test system: NCI-H226
[40] = test system: SF-539
[41] = test system: SF-268
[42] = test system: UACC-62
[43] = test system: MDA-MB-435
[44] = test system: SF-295
[45] = test system: NCI-H522
[46] = test system: SK-MEL-28
[47] = test system: TK-10
[48] = test system: MCF7
[49] = test system: K562
[50] = test system: DU-145
[51] = test system: SK-OV-3
[52] = test system: HL-60
[53] = test system: UACC-257
[54] = test system: HCT-15
[55] = test system: KM12
[56] = test system: T47D
[57] = test system: SK-MEL-5

## Cc1ccc2nc(CN3CCCC(O)C3)cc(=O)n2c1 (stereo unspecified)
[1]
  GI50: > 100 µM (inactive)
[2]
  GI50: > 100 µM (inactive)
[3]
  GI50: > 100 µM (inactive)
[4]
  GI50: > 100 µM (inactive)
[5]
  GI50: > 100 µM (inactive)
[6]
  GI50: > 100 µM (inactive)
[7]
  GI50: > 100 µM (inactive)
[8]
  GI50: > 100 µM (inactive)
[9]
  GI50: > 100 µM (inactive)
[10]
  GI50: > 100 µM (inactive)
[11]
  GI50: > 100 µM (inactive)
[12]
  GI50: > 100 µM (inactive)
[13]
  GI50: > 100 µM (inactive)
[14]
  GI50: > 100 µM (inactive)
[15]
  GI50: > 100 µM (inactive)
[16]
  GI50: > 100 µM (inactive)
[17]
  GI50: > 100 µM (inactive)
[18]
  GI50: > 100 µM (inactive)
[19]
  GI50: > 100 µM (inactive)
[20]
  GI50: > 100 µM (inactive)
[21]
  GI50: > 100 µM (inactive)
[22]
  GI50: > 100 µM (inactive)
[23]
  GI50: > 100 µM (inactive)
[24]
  GI50: > 100 µM (inactive)
[25]
  GI50: > 100 µM (inactive)
[26]
  GI50: > 100 µM (inactive)
[27]
  GI50: > 100 µM (inactive)
[28]
  GI50: > 100 µM (inactive)
[29]
  GI50: > 100 µM (inactive)
[30]
  GI50: > 100 µM (inactive)
[31]
  GI50: > 100 µM (inactive)
[32]
  GI50: > 100 µM (inactive)
[33]
  GI50: > 100 µM (inactive)
[34]
  GI50: > 100 µM (inactive)
[35]
  GI50: > 100 µM (inactive)
[36]
  GI50: > 100 µM (inactive)
[37]
  GI50: > 100 µM (inactive)
[38]
  GI50: > 100 µM (inactive)
[39]
  GI50: > 100 µM (inactive)
[40]
  GI50: > 100 µM (inactive)
[41]
  GI50: > 100 µM (inactive)
[42]
  GI50: > 100 µM (inactive)
[43]
  GI50: > 100 µM (inactive)
[44]
  GI50: > 100 µM (inactive)
[45]
  GI50: > 100 µM (inactive)
[46]
  GI50: > 100 µM (inactive)
[47]
  GI50: > 100 µM (inactive)
[48]
  GI50: > 100 µM (inactive)
[49]
  GI50: > 100 µM (inactive)
[50]
  GI50: > 100 µM (inactive)
[51]
  GI50: > 100 µM (inactive)
[52]
  GI50: > 100 µM (inactive)
[53]
  GI50: > 100 µM (inactive)
[54]
  GI50: > 100 µM
[55]
  GI50: > 100 µM (inactive)

## Nc1ccc2nc(-c3cccc(Cl)c3)cc(O)c2c1
[56]
  GI50: 5.96 µM (inactive)
[2]
  GI50: 6.73 µM (inactive)
[3]
  GI50: 26.5 µM (inactive)
[4]
  GI50: > 100 µM (inactive)
[5]
  GI50: 4.39 µM (inactive)
[8]
  GI50: 3.55 µM (inactive)
[9]
  GI50: 42.6 µM (inactive)
[10]
  GI50: 5.87 µM (inactive)
[11]
  GI50: 4.24 µM (inactive)
[12]
  GI50: 3.2 µM (inactive)
[15]
  GI50: 2.84 µM (inactive)
[16]
  GI50: 5.93 µM (inactive)
[18]
  GI50: 6.15 µM (inactive)
[19]
  GI50: 3.41 µM (inactive)
[21]
  GI50: 6.79 µM (inactive)
[22]
  GI50: 5.83 µM (inactive)
[23]
  GI50: 5.45 µM (inactive)
[24]
  GI50: 4.81 µM (inactive)
[26]
  GI50: 3.56 µM (inactive)
[27]
  GI50: 3.26 µM (inactive)
[30]
  GI50: 29.3 µM (inactive)
[31]
  GI50: 5.79 µM (inactive)
[32]
  GI50: 3.55 µM (inactive)
[33]
  GI50: 2.15 µM (inactive)
[34]
  GI50: 18 µM (inactive)
[35]
  GI50: 8.38 µM (inactive)
[36]
  GI50: 5.56 µM (inactive)
[37]
  GI50: 2.47 µM (inactive)
[38]
  GI50: 2.14 µM (inactive)
[57]
  GI50: 3.58 µM (inactive)
[40]
  GI50: 2.11 µM (inactive)
[42]
  GI50: 3.14 µM (inactive)
[43]
  GI50: 0.738 µM (active)
[45]
  GI50: 2.34 µM (inactive)
[46]
  GI50: 7.91 µM (inactive)
[47]
  GI50: 2.65 µM (inactive)
[48]
  GI50: 3.46 µM (inactive)
[51]
  GI50: 4.82 µM (inactive)
[53]
  GI50: > 100 µM (inactive)
[54]
  GI50: 3.19 µM
[55]
  GI50: 4.23 µM (inactive)

— ChEMBL document CHEMBL1201862, “PubChem BioAssay data set” (2004)
